Data on 14 compounds can be found in ChEMBL document CHEMBL4665678, “Overview of AKR1C3: Inhibitor Achievements and Disease Insights” (J Med Chem, 2020).

The structures appear in SMILES notation. Substitutions are numbered along the chain they refer to.

Test [1] deals with T1, Aldo-keto reductase family 1 member C3 (Homo sapiens, UniProt P42330).
T1 sequence (P42330 whole entry): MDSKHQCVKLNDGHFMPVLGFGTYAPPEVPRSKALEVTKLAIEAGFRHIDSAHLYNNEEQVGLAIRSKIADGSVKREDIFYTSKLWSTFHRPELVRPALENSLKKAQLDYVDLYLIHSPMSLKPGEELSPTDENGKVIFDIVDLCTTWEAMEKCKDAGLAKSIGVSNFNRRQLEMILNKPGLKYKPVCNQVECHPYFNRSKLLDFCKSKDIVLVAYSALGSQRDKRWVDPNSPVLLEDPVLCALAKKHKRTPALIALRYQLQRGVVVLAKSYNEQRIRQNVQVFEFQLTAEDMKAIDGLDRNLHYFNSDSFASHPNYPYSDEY
The experiment in a line: Inhibition of human AKR1C3 expressed in Escherichia coli incubated for 30 mins in presence of NADPH regeneration system by UHPLC analysis. Conditions: for Ki: read-out: Ki.

In test [2] the target is T2, Aldo-keto reductase family 1 member C4 (Homo sapiens, UniProt P17516).
T2 sequence (P17516 whole entry): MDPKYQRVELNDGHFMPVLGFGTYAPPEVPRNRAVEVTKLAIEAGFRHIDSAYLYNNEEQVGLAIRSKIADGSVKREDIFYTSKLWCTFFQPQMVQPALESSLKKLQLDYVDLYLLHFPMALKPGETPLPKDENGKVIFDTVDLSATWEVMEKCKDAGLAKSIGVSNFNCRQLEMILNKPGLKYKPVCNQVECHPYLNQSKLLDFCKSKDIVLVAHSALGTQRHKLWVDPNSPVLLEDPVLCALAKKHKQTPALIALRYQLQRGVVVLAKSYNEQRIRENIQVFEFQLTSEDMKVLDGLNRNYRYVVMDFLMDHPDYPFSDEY
As to the kind of experiment: Inhibition of human AKR1C4 using S-tetralol as substrate in presence of NADP by fluorescence method.

The target in test [3] is T3, Aldo-keto reductase family 1 member C2 (Homo sapiens, UniProt P52895).
T3 sequence (P52895 whole entry): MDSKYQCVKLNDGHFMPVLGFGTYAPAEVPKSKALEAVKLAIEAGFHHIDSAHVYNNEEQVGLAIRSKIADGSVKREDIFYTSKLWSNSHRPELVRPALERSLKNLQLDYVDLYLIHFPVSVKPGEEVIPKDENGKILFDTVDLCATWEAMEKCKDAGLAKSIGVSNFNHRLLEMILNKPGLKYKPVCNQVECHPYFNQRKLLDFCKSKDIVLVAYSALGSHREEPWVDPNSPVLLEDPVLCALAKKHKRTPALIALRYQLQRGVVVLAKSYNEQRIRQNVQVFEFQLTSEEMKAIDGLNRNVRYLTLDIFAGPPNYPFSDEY
As to the kind of experiment: Inhibition of human AKR1C2 using S-tetralol as substrate in presence of NADP by fluorescence method.

Test [4] deals with T1, Aldo-keto reductase family 1 member C3. The experiment in a line: Inhibition of human AKR1C3 using S-tetralol as substrate in presence of NADP by fluorescence method.
For test [5], the target named is T4, Aldo-keto reductase family 1 member C1 (Homo sapiens, UniProt Q04828).
T4 sequence (Q04828 whole entry): T3 sequence (P52895 whole entry) with V38T, H47R, V54L, S87C, M151V, H170R, L172Q
As to the kind of experiment: Inhibition of human AKR1C1 using S-tetralol as substrate in presence of NADP by fluorescence method.

The target in test [6] is T1, Aldo-keto reductase family 1 member C3. As to the kind of experiment: Inhibition of human AKR1C3 expressed in Escherichia coli BL21(DE3) pLysS cells using 9,10-phenanthrenequinone as substrate.
The target is the same in test [7]. As to the kind of experiment: Inhibition of human AKR1C3 expressed in Escherichia coli BL21(DE3) pLysS cells using S-tetralol as substrate.
For test [8], the target named is T5, Androgen receptor (Homo sapiens, UniProt P10275).
T5 sequence (P10275 whole entry): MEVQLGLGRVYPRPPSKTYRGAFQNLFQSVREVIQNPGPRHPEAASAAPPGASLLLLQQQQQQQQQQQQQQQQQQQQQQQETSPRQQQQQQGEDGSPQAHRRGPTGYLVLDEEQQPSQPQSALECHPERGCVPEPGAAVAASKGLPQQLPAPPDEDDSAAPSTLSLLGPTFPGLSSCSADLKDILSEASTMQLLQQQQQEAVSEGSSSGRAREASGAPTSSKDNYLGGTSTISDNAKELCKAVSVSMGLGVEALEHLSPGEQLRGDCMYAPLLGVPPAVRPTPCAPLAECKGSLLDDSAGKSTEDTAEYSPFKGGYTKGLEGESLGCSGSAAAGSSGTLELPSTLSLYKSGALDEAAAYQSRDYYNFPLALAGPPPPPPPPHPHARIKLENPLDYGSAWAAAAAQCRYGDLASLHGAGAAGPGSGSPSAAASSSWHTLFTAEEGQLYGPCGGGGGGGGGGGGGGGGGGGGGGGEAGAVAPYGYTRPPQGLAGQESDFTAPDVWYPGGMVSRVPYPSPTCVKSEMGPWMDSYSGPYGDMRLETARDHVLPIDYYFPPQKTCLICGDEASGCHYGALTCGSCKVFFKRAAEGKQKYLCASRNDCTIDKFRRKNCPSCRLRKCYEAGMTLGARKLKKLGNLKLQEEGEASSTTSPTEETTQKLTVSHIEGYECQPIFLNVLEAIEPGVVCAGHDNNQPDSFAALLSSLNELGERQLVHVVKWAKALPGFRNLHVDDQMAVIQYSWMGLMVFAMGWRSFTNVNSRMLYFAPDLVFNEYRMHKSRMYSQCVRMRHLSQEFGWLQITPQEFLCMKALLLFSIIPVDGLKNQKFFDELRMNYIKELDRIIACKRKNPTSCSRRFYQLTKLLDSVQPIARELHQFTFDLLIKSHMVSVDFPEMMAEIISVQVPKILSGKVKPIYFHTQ
As to the kind of experiment: Displacement of [3H]-R1881 from androgen receptor (unknown origin) expressed in human HeLa cells harboring AR3A-PSA-(ARE)4-Luc13 incubated for 2 hrs by scintillation counting. The class given is cell-based. For orientation: Loss of bound radioactivity is the signal in a displacement assay; it reports binding, not function.

In test [9] the target is T5, Androgen receptor. The experiment in a line: Antagonist activity at androgen receptor (unknown origin) expressed in human HeLa cells harboring AR3A-PSA-(ARE)4-Luc13 in presence of DHT by BrightGlo luciferase assay. Type of test: cell-based.
In test [10] the target is T6, Aldo-keto reductase family 1 member A1 (Homo sapiens, UniProt P14550).
T6 sequence (P14550 whole entry): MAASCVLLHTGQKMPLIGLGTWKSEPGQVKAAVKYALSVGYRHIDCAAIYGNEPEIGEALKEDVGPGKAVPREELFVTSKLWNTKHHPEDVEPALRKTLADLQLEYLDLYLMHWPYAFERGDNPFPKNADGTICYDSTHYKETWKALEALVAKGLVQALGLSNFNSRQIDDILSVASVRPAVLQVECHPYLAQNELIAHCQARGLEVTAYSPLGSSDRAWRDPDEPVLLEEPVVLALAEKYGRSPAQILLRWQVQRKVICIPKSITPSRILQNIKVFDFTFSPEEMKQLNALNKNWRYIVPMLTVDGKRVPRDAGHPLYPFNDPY
As to the kind of experiment: Inhibition of N-terminal His-tagged human AKR1A1 expressed in Escherichia coli BL21 ([…] Plus) competent cells using D,L-glyceraldehyde as substrate in presence of NADPH by fluorescence method.

For test [11], the target named is Aldo-keto reductase family 1 member B10 (Homo sapiens, UniProt O60218). As to the kind of experiment: Inhibition of N-terminal His-tagged human AKR1B10 expressed in Escherichia coli BL21 ([…] Plus) competent cells using […] as substrate in presence of NADPH by fluorescence method.
Chain of Aldo-keto reductase family 1 member B10 (O60218 whole entry): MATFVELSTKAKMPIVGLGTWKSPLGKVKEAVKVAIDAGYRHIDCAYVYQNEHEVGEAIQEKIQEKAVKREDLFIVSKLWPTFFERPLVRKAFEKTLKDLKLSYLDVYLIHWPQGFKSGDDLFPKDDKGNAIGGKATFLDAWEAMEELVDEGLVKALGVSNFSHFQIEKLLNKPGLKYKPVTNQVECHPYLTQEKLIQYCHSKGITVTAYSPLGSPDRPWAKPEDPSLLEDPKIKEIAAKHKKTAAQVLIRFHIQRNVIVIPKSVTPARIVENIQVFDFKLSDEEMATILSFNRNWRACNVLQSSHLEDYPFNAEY
The target of test [12] is Aldo-keto reductase family 1 member B1 (Homo sapiens, UniProt P15121). The experiment in a line: Inhibition of N-terminal His-tagged human AKR1B1 expressed in Escherichia coli BL21 ([…] Plus) competent cells using D,L-glyceraldehyde as substrate in presence of NADPH by fluorescence method.
Test [13] deals with T2, Aldo-keto reductase family 1 member C4. As to the kind of experiment: Inhibition of N-terminal His-tagged human AKR1C4 expressed in Escherichia coli BL21 ([…] Plus) competent cells using 9,10 -Phenanthrenequinone as substrate in presence of NADPH by fluorescence method.
In test [14] the target is T1, Aldo-keto reductase family 1 member C3. As to the kind of experiment: Inhibition of N-terminal His-tagged human AKR1C3 expressed in Escherichia coli BL21 ([…] Plus) competent cells using 9,10 -Phenanthrenequinone as substrate in presence of NADPH by fluorescence method.
Test [15] addresses T4, Aldo-keto reductase family 1 member C1. The experiment in a line: Inhibition of N-terminal His-tagged human AKR1C1 expressed in Escherichia coli BL21 ([…] Plus) competent cells using 9,10 -Phenanthrenequinone as substrate in presence of NADPH by fluorescence method.
Test [16] has as its target T3, Aldo-keto reductase family 1 member C2. The experiment in a line: Inhibition of N-terminal His-tagged human AKR1C2 expressed in Escherichia coli BL21 ([…] Plus) competent cells using 9,10 -Phenanthrenequinone as substrate in presence of NADPH by fluorescence method.
The target in test [17] is T1, Aldo-keto reductase family 1 member C3. The experiment in a line: Inhibition of N-terminal His-tagged human AKR1C3 expressed in Escherichia coli BL21([…] Plus) competent cells using 9,10-phenanthrenequinone as substrate in presence of NADPH.
The target in test [18] is T3, Aldo-keto reductase family 1 member C2. The experiment in a line: Inhibition of N-terminal His-tagged human AKR1C2 expressed in Escherichia coli BL21 ([…] Plus) competent cells using 9,10-phenanthrenequinone as substrate in presence of NADPH.
In test [19] the target is T4, Aldo-keto reductase family 1 member C1. As to the kind of experiment: Inhibition of N-terminal His-tagged human AKR1C1 expressed in Escherichia coli BL21 ([…] Plus) competent cells using 9,10-phenanthrenequinone as substrate in presence of NADPH.
For test [20], the target named is T3, Aldo-keto reductase family 1 member C2. The experiment in a line: Inhibition of AKR1C2 (unknown origin) using 9,10-phenanthrenequinone as substrate.
The target of test [21] is T4, Aldo-keto reductase family 1 member C1. As to the kind of experiment: Inhibition of AKR1C1 (unknown origin) using 9,10-phenanthrenequinone as substrate.

Usually IC50 stands for the point on the concentration scale where inhibition reaches its midpoint. In general, Ki refers to the equilibrium dissociation constant of an inhibitor or competing ligand from its target. Consider `CC(C)C(CO)Nc1nc(Nc2cccc(Cl)c2)c2ncn(C(C)C)c2n1` (stereo not given), for which, in test [1], the IC50 came out at 6.58 µM and the Ki is 5.5 µM.

Take `O=C(O)c1cccc(Nc2ccc([N+](=O)[O-])c3ccccc23)c1`: the IC50 in [2] amounted to 30.6 µM; in [3], 24.7 µM; in test [4], 0.086 µM; in test [5], 41.3 µM.

On to `CCCCC/C=C/C/C=C/C/C=C/C/C=C/CCCC(=O)O`, for which the IC50 is 0.84 µM in [6] and 0.69 µM in test [7].

As for `Oc1ccc2c(O)ncc(-c3cc(F)c(F)c(F)c3)c2c1`, the IC50 turned out to be 80 µM at Androgen receptor [8] and 2.1 µM on Androgen receptor [9].

For the compound `O=C(O)c1cccc(Nc2ccc([N+](=O)[O-])c3c([N+](=O)[O-])cccc23)c1`, the IC50 in [2] is 5.34 µM; in [3], 15.6 µM; in test [4], 0.053 µM; in test [5], 15.4 µM.

In the case of `CC(=O)c1ccc(Nc2cccc(C(=O)O)c2)c2ccccc12`, the IC50 in test [2] stood at 17.7 µM; in test [3] it was 19.5 µM; in test [4], 0.082 µM; in test [5], 50 µM.

For the compound `CCC(CO)Nc1nc(NCc2ccccc2)c2ncn(C(C)C)c2n1` (stereo not drawn) [(RS)-ROSCOVITINE], in [1], the IC50 worked out at 2.15 µM and the Ki worked out at 1.4 µM.

In the case of `COc1ccc2[nH]c(C(=O)N3CCC(CC(C)(C)O)CC3)cc2c1` [ASP-9521], the IC50 on Androgen receptor [9] was found to be 300 µM.

Consider `O=C(/C=C/c1ccc(O)c(O)c1)OCCc1ccccc1` [CAFFEIC ACID PHENETHYL ESTER], for which the IC50 in test [10] was > 50 µM; in [11] it was 0.39 µM; in [12], 3.56 µM; in test [13] it was 8.25 µM; in [14], 3.71 µM; in test [15], 29.2 µM. In addition, the IC50 in test [16] was found to be 25.8 µM.

For `Cc1ccc(S(=O)(=O)NC(=O)NN2CC3CCCC3C2)cc1` (stereo not given) [GLICLAZIDE], the figures for the IC50 in test [17], in [18] and in test [19] were 19.6 µM, > 1000 µM and > 300 µM, respectively.

For `CCC1=C(C)CN(C(=O)NCCc2ccc(S(=O)(=O)NC(=O)N[C@H]3CC[C@H](C)CC3)cc2)C1=O` [GLIMEPIRIDE], the IC50 in [17] is 0.85 µM; in test [18] it was > 50 µM; in test [19] it was 6.86 µM.

As to `COc1ccc2c(c1)c(CC(=O)O)c(C)n2C(=O)c1ccc(Cl)cc1` [INDOMETHACIN], the IC50 in test [20] is 50 µM; in test [21], 96 µM.

Turning to `CCCCC/C=C\C/C=C\CCCCCCCC(=O)O` [LINOLEIC ACID], the IC50 in [6] and in [7] was 0.69 µM in each case.

As to `CCCCCCCCOC(=O)c1cc(O)c(O)c(O)c1` [OCTYL_GALLATE], the IC50 in [10] was > 100 µM; in test [11], > 100 µM; in test [12], > 100 µM; in test [13], 4.04 µM; in test [14], 2.56 µM; in test [15] it was 5.48 µM. The IC50 in [16] amounted to 9.28 µM.
